Measurements reported in paper PMC9227171 (Life, 2022).
Where “and” joins values, the source holds several entries; their conditions need not be identical. Equal values may be shown once.

Experiments:
[1] = system: protein synthesis in rabbit reticulocyte lysates; test: Inhibition of protein synthesis in rabbit reticulocyte lysates (luciferase mRNA, luminescence); assay type: biochemical; conditions: for impact on protein synthesis: concentration range extending to 50 μM; for inhibition of translation: at 100 μM; for EC50: luciferase mRNA, 30 °C, 90 min, read-out: EC50 (50% inhibitory concentration)
Method: The dose–response change in chemoluminescense monitored in the presence of various concentrations of investigational drugs following addition of luciferin allows comparison across compounds.
Assay conditions were employed as recommended by the manufacturer. In summary, reactions (20 μL) contained 80% TNT Quick master mix, 20 µM methionine, and 40 ng/µL luciferase RNA (Promega; L4561) at the indicated concentration of test chemicals. Samples were incubated at 30 °C for 90 min and diluted ten-fold with PBS. An aliquot (2 μL) was mixed with 20 μL of luciferase assay reagent (Promega; E1500) and luminescence was measured with a Turner Designs Model TD-20/20 Luminometer. Depending on the compound evaluated, experiments were repeated two-four times with good agreement between the runs. […] The results are reported as average values including the mean and standard deviation wherever applicable.

[2] = target: SARS-CoV-2 RdRp (nsp12/7/8 complex) (Severe acute respiratory syndrome coronavirus 2, UniProt P0DTD1); test: Inhibition of SARS-CoV-2 RdRp active complex (RNA extension assay); assay type: biochemical; conditions: RdRp-mediated RNA replication, 37 °C, 60 min, 1 μM RdRp complex
[3] = system: HIV-1; conditions: among low molecular weight ATA components ref 39, 43; cited from earlier work
[4] = system: hCoV-OC43; test: Antiviral properties in hCoV-OC43 and VERO E6 cells (data not shown); assay type: cell-based; conditions: concentrations ≥200 μM
[5] = target: T1, human serum albumin (HSA) (Homo sapiens, UniProt P02768); test: HSA binding energetics via isothermal titration calorimetry (ITC); conditions: for TΔS / ΔG / ΔH: pH 7.4
T1 construct: purchased Millipore Sigma A1887
T1 sequence (P02768 25-609): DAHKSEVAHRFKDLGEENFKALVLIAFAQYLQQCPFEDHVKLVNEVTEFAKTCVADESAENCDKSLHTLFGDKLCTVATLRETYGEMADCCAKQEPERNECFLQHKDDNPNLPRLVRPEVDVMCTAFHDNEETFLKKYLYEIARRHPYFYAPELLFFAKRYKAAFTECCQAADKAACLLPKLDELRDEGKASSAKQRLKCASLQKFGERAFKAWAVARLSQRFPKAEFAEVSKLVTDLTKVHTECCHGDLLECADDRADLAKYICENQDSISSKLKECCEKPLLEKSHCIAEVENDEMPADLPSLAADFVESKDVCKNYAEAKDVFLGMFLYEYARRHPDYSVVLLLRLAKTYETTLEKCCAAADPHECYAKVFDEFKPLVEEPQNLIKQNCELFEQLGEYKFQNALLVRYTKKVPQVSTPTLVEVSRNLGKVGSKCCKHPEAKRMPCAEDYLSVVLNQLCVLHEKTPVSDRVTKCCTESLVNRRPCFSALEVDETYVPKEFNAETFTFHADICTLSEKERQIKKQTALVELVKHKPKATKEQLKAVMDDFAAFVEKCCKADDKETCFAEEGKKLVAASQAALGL
Method: The resultant heats are integrated to yield a binding profile (bottom panel) that is fit via nonlinear least squares analysis to a single site model (red line).
The protein was prepared as described in Section 5.1 and dialyzed exhaustively against a buffer comprised of 10 mM sodium phosphate adjusted to pH 7.4. […] Each ITC experiment consisted of thirty consecutive 10.0 µL injections during which the reaction heat is monitored and integrated over a 5.0 min period under continuous stirring. The experimental protocol has been designed to ensure that there is a tenfold excess of ligand in the titration syringe relative to standard protein concentration in the sample cell. The resultant binding isotherms are generated by recording the integrated reaction heats normalized for ligand concentration versus the HSA:ligand ratio. A nonlinear least squares fit of the resultant profile to a single site binding model yields thermodynamic parameters for the HSA–ligand complex including the affinity (Ka), Gibbs free energy (ΔG), enthalpy (ΔH), and entropy (ΔS).

[6] = target: yeast 80S ribosomes; test: Ligand–ribosome binding via fluorescence anisotropy
[7] = system: protein synthesis in Vero E6 cells; test: Protein synthesis in cultured cells: puromycin pulse labeling and immunoblotting; assay type: cell-based, African green monkey
Method: Prior to the experiment, Vero E6 cells were seeded at 30,000 cells per cm^2 in 6-well plates in 5% FBS-EMEM. […] Control experiments were conducted in the absence and presence of cycloheximide (1–150 μM) or DMSO. Following incubation with puromycin for 10 min, the medium was quickly removed and cells washed with warm PBS and allowed to recover in drug-free 5% FBS-EMEM for 30 min. Cell pellets collected by trypsinization and centrifugation were stored at −80 °C while awaiting protein preparation and immunoblotting as described below.
Cell lysates were prepared in RIPA (radio-immunoprecipitation) buffer (Sigma; R0278) containing protease inhibitors (Sigma; P8340). Protein concentrations were determined via the Pierce^TM bicinconinic acid (BCA) assay (Thermo Fisher Scientific, Waltham, MA, USA) using bovine serum albumin as a standard. All procedures were performed in accordance with protocols recommended by the manufacturers. For immunoblotting, 8 μg of protein was combined with Laemmli buffer containing 10% β-mercaptoethanol, heated at 95 °C for 5 min and loaded on 8–16% Mini-PROTEAN® TGX™ precast protein gels. Samples were resolved via electrophoresis in Tris-Gly-SDS buffer and transferred to nitrocellulose membranes in Tris-Gly buffer containing 20% methanol at 4–6 V/cm^2 for one hour. Membranes were blocked in 10 mM sodium phosphate buffer containing 150 mM NaCl (pH 7.8), 5% milk and 0.1% TWEEN20 (PBST) at room temperature for at least one hour, then incubated overnight with primary anti-puromycin antibodies (TFS; MABE343 mouse monoclonal antibodies clone 12D10; 1:25,000) at 4 °C. […]
For β-actin staining, the same membranes used for puromycin immunostaining were washed four times for five min with 20 mM Tris-buffered saline containing 500 mM sodium chloride (pH 7.5) and 0.1% TWEEN20 (TBST) and stripped by two rounds of 20- and 10-min washes at 50 °C in glycine buffer (pH 2.2) containing 0.1% SDS (w/v) and 1% TWEEN20. […] The results were quantified with Image J 1.52a software using β-actin staining for each sample as an internal reference.

[8] = ITC, 25.0 °C, listed as Dichlorohexamer

Q: For `O=C(O)c1cc(Cc2cc(Cc3cc(Cc4ccc(O)c(C(=O)O)c4)c(O)c(C(=O)O)c3)cc(C(=O)O)c2O)ccc1O` [compound 9], which “impact on protein synthesis” value [1] is on record?
A: did not impact protein synthesis

Q: What about the IC50 [2] of the same compound?
A: 514 µM and ~514 µM

Q: Which “activity against HIV-1” value [3] does the source give for `O=C(O)c1cc(Cc2cc(C(c3ccc(O)c(C(=O)O)c3)c3ccc(O)c(C(=O)O)c3)cc(C(=O)O)c2O)ccc1O` [compound 2] here?
A: most active

Q: For `O=C(O)c1cc(Cc2cc(Cc3cc(Cc4cc(Cl)c(O)c(C(=O)O)c4)c(O)c(C(=O)O)c3)cc(C(=O)O)c2O)cc(Cl)c1O` [compound 8], which “impact on protein synthesis” value [1] is on record?
A: did not impact protein synthesis

Q: What about the IC50 [2] of the same compound?
A: 163 µM and ~163 µM

Q: With `O=C(O)c1cc(Cc2cc(Cc3cc(Cc4cc(Cc5cc(Cc6cc(Cl)c(O)c(C(=O)O)c6)c(O)c(C(=O)O)c5)c(O)c(C(=O)O)c4)cc(C(=O)O)c3O)cc(C(=O)O)c2O)cc(Cl)c1O` [compound 11] as the compound, how does the antiviral properties [4] read?
A: modest activity

Q: And the Kd ([5]; ITC, 25.0 °C, 10 mM sodium phosphate pH 7.4)?
A: 1 ± 0.1 µM

Q: And the “Ka × 10^5” value ([5]; ITC, 25.0 °C, 10 mM sodium phosphate pH 7.4, single site model)?
A: 9.9 ± 0.5 10^5 M^−1

Q: And the TΔS ([5]; ITC, 25.0 °C)?
A: -7.1 kcal/mol

Q: What about the ΔG ([5]; ITC, 25.0 °C) of the same compound?
A: -8.0 kcal/mol

Q: What about the ΔH ([5]; ITC, 25.0 °C) of the same compound?
A: -15.1 kcal/mol

Q: What about the TΔS [5, 8] of the same compound?
A: -7.1 ± 0.2 kcal/mol

Q: And the ΔG [5, 8]?
A: -8.0 ± 0.2 kcal/mol

Q: What about the ΔH [5, 8] of the same compound?
A: -15.1 ± 0.2 kcal/mol

Q: And the stoichiometry n ([5]; ITC, per monomeric unit of ATA (Mw 422.34) or per dichlorohexamer (Mw 956))?
A: 1.0 ±0.0

Q: What about the ΔΔG ([5]; chlorinated hexamer versus heterogeneous polymeric ATA, HSA binding) of the same compound?
A: 0.4 kcal/mol

Q: What about the Kd ([6]; 25 °C, fluorescence anisotropy) of the same compound?
A: 0.21 ± 0.02 µM

Q: What about the “affinity (double reciprocal plot)” value ([6]; 25 °C, ligand 1 μM, excitation/emission 305/420 nm) of the same compound?
A: 4.8 × 10 ^6 M^−1

Q: What about the Kd ([6]; purified yeast ribosomes, discussion value) of the same compound?
A: ~0.2 µM

Q: What about the inhibition of translation [1] of the same compound?
A: ~100%

Q: What about the inhibition of translation ([1]; signal comparable to background) of the same compound?
A: completely inhibited translation

Q: And the EC50 [1]?
A: 28.1 µM

Q: And the IC50 [2]?
A: 0.108 µM

Q: What does the source list for `C[C@@H]1C[C@@H]([C@H](O)CC2CC(=O)NC(=O)C2)C(=O)[C@@H](C)C1` [Cycloheximide]?
A: EC50 [1]: 0.106 µM; activity at 150 µM ([7]; Chlorocebus sabaeus, Vero C1008, 150 uM, read-out: % activity (anti-puromycin/b-actin densitometry)): -3.99%; activity at 300 µM ([7]; Chlorocebus sabaeus, Vero C1008, 300 uM, read-out: % activity (anti-puromycin/b-actin densitometry)): -3.95%; concentration that inhibits protein synthesis ([7]; puromycin labeling): 1 µM

Q: For `O=C(O)c1cc(Cc2cc(Cc3ccc(O)c(C(=O)O)c3)c(O)c(C(=O)O)c2)ccc1O` [compound 3], which “activity against HIV-1” value [3] is on record?
A: most active
